Among the data in patent US7745636B2, “Hepatitis C virus inhibitors” (Bristol-Myers Squibb Company, priority 2006, dated 2010) are EC50 values, retold here.

A word on the EC50: it is the concentration giving half of the maximal effect.

Each structure is given as a SMILES string.

This assay relates to HCV 1b-377-neo replicon cells. Kind of assay: HCV Replicon assay, HCV 1b-377-neo replicon cells. It counts as cell-based, HCV 1b genotype. Conditions: Hepatitis C virus, Table 2, read-out: Range (EC50 against HCV 1b). The protocol:
An HCV Replicon assay was utilized in the present disclosure, and was prepared, conducted and validated as described in commonly owned PCT/US2006/022197 and in O'Boyle et. al. Antimicrob Agents Chemother. 2005 April; 49(4):1346-53.
HCV 1b-377-neo replicon cells were used to test the currently described compound series as well as cells resistant to compound A due to a Y2065H mutation in NS5A (described in application PCT/US2006/022197). The compounds tested were determined to have more than 10-fold less inhibitory activity on cells resistant to compound A than wild-type cells indicating a related mechanism of action between the two compound series. Thus, the compounds of the present disclosure can be effective to inhibit the function of the HCV NS5A protein and are understood to be as effective in combinations as previously described in application PCT/US2006/022197 and commonly owned WO/O4014852. Further, the compounds of the present disclosure can be effective against the HCV 1b genotype. It should also be understood that the compounds of the present disclosure can inhibit multiple genotypes of HCV. […] In one embodiment compounds of the present disclosure are active against the 1a, 1b, 2a, 2b, 3a, 4a, and 5a genotypes.
Consider `COC(=O)N[C@@H](C(=O)N1CCC[C@H]1c1ncc(-c2ccc(-c3ccc(-c4cnc([C@@H]5CCCN5C(=O)[C@H](NC(=O)OC)c5ccccc5)[nH]4)cc3C)nc2)[nH]1)c1ccccc1` [Example 138, methyl((1R)-2-((2S)-2-(5-(6-(4-(2-((2S)-1-((2R)-2-((methoxycarbonyl)amino)-2-phenylacetyl)-2-pyrrolidinyl)-1H-imidazol-5-yl)-2-methylphenyl)-3-pyridinyl)-1H-imidazol-2-yl)-1-pyrrolidinyl)-2-oxo-1-phenylethyl)carbamate], for which the EC50 is 0.001 to 0.999 nM.

For `CC(=O)N[C@@H](C(=O)N1CCC[C@H]1c1ncc(-c2ccc(-c3ccc(-c4cnc([C@@H]5CCCN5C(=O)[C@H](NC(C)=O)c5ccccc5)[nH]4)cn3)cc2)[nH]1)c1ccccc1` [Example 139, N-((1R)-2-((2S)-2-(5-(6-(4-(2-((2S)-1-((2R)-2-acetamido-2-phenylacetyl)-2-pyrrolidinyl)-1H-imidazol-5-yl)phenyl)-3-pyridinyl)-1H-imidazol-2-yl)-1-pyrrolidinyl)-2-oxo-1-phenylethyl)acetamide], the EC50 was in the range of 0.001 to 0.999 nM.

For the molecule `COC(=O)N[C@@H](C(=O)N1CCC[C@H]1c1ncc(-c2ccc(-c3ccc(-c4cnc([C@@H]5CCCN5C(=O)[C@@H](c5ccccc5)N(C)C)[nH]4)cn3)cc2)[nH]1)c1ccccc1` [Example 140, methyl((1R)-2-((2S)-2-(5-(4-(5-(2-((2S)-1-((2R)-2-(dimethylamino)-2-phenylacetyl)-2-pyrrolidinyl)-1H-imidazol-5-yl)-2-pyridinyl)phenyl)-1H-imidazol-2-yl)-1-pyrrolidinyl)-2-oxo-1-phenylethyl)carbamate], the EC50 is 0.001 to 0.999 nM.

For `COC(=O)N[C@@H](C(=O)N1CCC[C@H]1c1ncc(-c2ccc(-c3ccc(-c4cnc([C@@H]5CCCN5C(=O)[C@H]5CCCO5)[nH]4)cn3)cc2)[nH]1)c1ccccc1` [Example 141, methyl ((1R)-2-oxo-1-phenyl-2-((2S)-2-(5-(4-(5-(2-((2S)-1-((2R)-tetrahydro-2-furanylcarbonyl)-2-pyrrolidinyl)-1H-imidazol-5-yl)-2-pyridinyl)phenyl)-1H-imidazol-2-yl)-1-pyrrolidinyl)ethyl)carbamate], the EC50 lay in the range of 0.001 to 0.999 nM.

Consider `COC(=O)N[C@@H](C(=O)N1CCC[C@H]1c1ncc(-c2ccc(-c3ccc(-c4cnc([C@@H]5CCCN5C(=O)C5CCN(C)CC5)[nH]4)cn3)cc2)[nH]1)c1ccccc1` [Example 142, methyl ((1R)-2-((2S)-2-(5-(4-(5-(2-((2S)-1-((1-methyl-4-piperidinyl)carbonyl)-2-pyrrolidinyl)-1H-imidazol-5-yl)-2-pyridinyl)phenyl)-1H-imidazol-2-yl)-1-pyrrolidinyl)-2-oxo-1-phenylethyl)carbamate], for which the EC50 lay within 1 to 99 nM.

Take `COC(=O)N[C@@H](C(=O)N1CCC[C@H]1c1ncc(-c2ccc(-c3ccc(-c4cnc([C@@H]5CCCN5C(=O)Cc5cccnc5)[nH]4)cn3)cc2)[nH]1)c1ccccc1` [Example 143, methyl ((1R)-2-oxo-1-phenyl-2-((2S)-2-(5-(4-(5-(2-((2S)-1-(3-pyridinylacetyl)-2-pyrrolidinyl)-1H-imidazol-5-yl)-2-pyridinyl)phenyl)-1H-imidazol-2-yl)-1-pyrrolidinyl)ethyl)carbamate]: the EC50 was in the range of 0.001 to 0.999 nM.

Take `COC(=O)N[C@@H](C(=O)N1CCC[C@H]1c1ncc(-c2ccc(-c3ccc(-c4cnc([C@@H]5CCCN5C(=O)N5CCOCC5)[nH]4)cn3)cc2)[nH]1)c1ccccc1` [Example 144, methyl((1R)-2-((2S)-2-(5-(4-(5-(2-((2S)-1-(4-morpholinylcarbonyl)-2-pyrrolidinyl)-1H-imidazol-5-yl)-2-pyridinyl)phenyl)-1H-imidazol-2-yl)-1-pyrrolidinyl)-2-oxo-1-phenylethyl)carbamate]: the EC50 was 0.001 to 0.999 nM.

As for `COC(=O)N[C@@H](C(=O)N1CCC[C@H]1c1ncc(-c2ccc(-c3ccc(-c4cnc([C@@H]5CCCN5C(=O)[C@H](NC(=O)OC)c5ccccc5)[nH]4)cn3)nc2)[nH]1)c1ccccc1` [Example 145, dimethyl(2,2′-bipyridine-5,5′-diylbis(1H-imidazole-5,2-diyl(2S)-2,1-pyrrolidinediyl((1R)-2-oxo-1-phenyl-2,1-ethanediyl)))biscarbamate], the EC50 was 0.001 to 0.999 nM.

As for `CN(C)[C@@H](C(=O)N1CCC[C@H]1c1ncc(-c2ccc(-c3ccc(-c4cnc([C@@H]5CCCN5C(=O)[C@@H](c5ccccc5)N(C)C)[nH]4)nc3)cc2)[nH]1)c1ccccc1` [Example 146, (1R)-2-((2S)-2-(5-(5-(4-(2-((2S)-1-((2R)-2-(dimethylamino)-2-phenylacetyl)-2-pyrrolidinyl)-1H-imidazol-5-yl)phenyl)-2-pyridinyl)-1H-imidazol-2-yl)-1-pyrrolidinyl)-N,N-dimethyl-2-oxo-1-phenylethanamine], the EC50 fell in the range of 0.001 to 0.999 nM.

Regarding `COC(=O)N[C@@H](C(=O)N1CCC[C@H]1c1ncc(-c2ccc(-c3ccc(-c4cnc([C@@H]5CCCN5C(=O)[C@H](NC(=O)OC)c5ccccc5)[nH]4)nc3)cc2)[nH]1)c1ccccc1` [Example 147, methyl((1R)-2-((2S)-2-(5-(5-(4-(2-((2S)-1-((2R)-2-((methoxycarbonyl)amino)-2-phenylacetyl)-2-pyrrolidinyl)-1H-imidazol-5-yl)phenyl)-2-pyridinyl)-1H-imidazol-2-yl)-1-pyrrolidinyl)-2-oxo-1-phenylethyl)carbamate], the half-maximal effective concentration (EC50) lay within 0.001 to 0.999 nM.

As to `CN(C)[C@@H](C(=O)N1CSC[C@H]1c1ncc(-c2ccc(-c3ccc(-c4cnc([C@@H]5CSCN5C(=O)[C@@H](c5ccccc5)N(C)C)[nH]4)cc3)cc2)[nH]1)c1ccccc1` [Example 148, (1R,1′R)-2,2′-(4,4′-biphenyldiylbis(1H-imidazole-5,2-diyl(4R)-1,3-thiazolidine-4,3-diyl))bis(N,N-dimethyl-2-oxo-1-phenylethanamine)], the EC50 lay in the range of 1 to 99 nM.

Take `CN(C)[C@@H](C(=O)N1CCC[C@H]1c1ncc(-c2ccc(-c3ncc(-c4cnc([C@@H]5CCCN5C(=O)[C@@H](c5ccccc5)N(C)C)[nH]4)cn3)cc2)[nH]1)c1ccccc1` [Example 152j-1, (1R)-2-((2S)-2-(5-(2-(4-(2-((2S)-1-((2R)-2-(dimethylamino)-2-phenylacetyl)-2-pyrrolidinyl)-1H-imidazol-5-yl)phenyl)-5-pyrimidinyl)-1H-imidazol-2-yl)-1-pyrrolidinyl)-N,N-dimethyl-2-oxo-1-phenylethanamine]: the EC50 fell in the range of 1 to 99 nM.

`COC(=O)N[C@@H](C(=O)N1CCC[C@H]1c1ncc(-c2ccc(-c3ncc(-c4cnc([C@@H]5CCCN5C(=O)[C@H](NC(=O)OC)c5ccccc5)[nH]4)cn3)cc2)[nH]1)c1ccccc1` [Example 152j-2, methyl ((1R)-2-((2S)-2-(5-(2-(4-(2-((2S)-1-((2R)-2-((methoxycarbonyl)amino)-2-phenylacetyl)-2-pyrrolidinyl)-1H-imidazol-5-yl)phenyl)-5-pyrimidinyl)-1H-imidazol-2-yl)-1-pyrrolidinyl)-2-oxo-1-phenylethyl)carbamate]: the EC50 was in the range of 0.001 to 0.999 nM.

For the molecule `COC(=O)N[C@@H](C(=O)N1CCC[C@H]1c1ncc(-c2ccc(-c3ncc(-c4cnc([C@@H]5CCCN5C(=O)Cc5cccnc5)[nH]4)cn3)cc2)[nH]1)c1ccccc1` [Example 152j-3, methyl ((1R)-2-oxo-1-phenyl-2-((2S)-2-(5-(4-(5-(2-((2S)-1-(3-pyridinylacetyl)-2-pyrrolidinyl)-1H-imidazol-5-yl)-2-pyrimidinyl)phenyl)-1H-imidazol-2-yl)-1-pyrrolidinyl)ethyl)car bamate], the EC50 lay in the range of 0.001 to 0.999 nM.
